Data published in patent publication US11466273B2, “Monocarboxylate transporter 4 (MCT4) antisense oligonucleotide (ASO) inhibitors for use as therapeutics in the treatment of cancer” (THE UNIVERSITY OF BRITISH COLUMBIA, priority 2015, dated 2022).
Strand notation (5' to 3'): a small letter for the sugar, then the base; units joined by * are phosphorothioate-linked, units joined directly phosphodiester-linked; [ ] holds rarer units or linkages, { } end groups; capitals alone tell only the bases. d = 2'-deoxy (DNA)

Tests used:
MCT4 = assay: Percent inhibition of MCT4 by MCT4 ASOs (knock-down after transfection, qPCR/Western blot); format: cell-based, human
Protocol: First-generation phosphorothioate-modified ASOs against human MCT4 were rationally designed by selecting sequences containing favourable motifs while excluding unfavourable ones (Matveeva et al., 2000). Specificity of MCT4-targeting sequences, compared to human and mouse genes (at least 3 of 20 bases mismatched), was evaluated using BLAST. Ten sequences SEQ ID No: 1, 4, 5, 9, 11, 30, 36, 37, 40 and 41 (see TABLE A) distributed throughout the length of the transcript with perfect complementarity to all human MCT4 transcript variants (NM_001042422.2, NM_001042423.2, NM_001206950.1, NM_001206951.1, NM_001206952.1, and NM_004207.3) were selected and synthesized by Eurofins MWG Operon. The knock-down efficiencies of these ten ASOs were tested by determining target mRNA and protein expression 48 hours after transfection of cells using qPCR and Western blotting. Two candidate ASOs (#1 and #14—SEQ ID NOs: 1 and 5, respectively) were selected for further studies. Sequences: ASO #1 (SEQ ID NO: 1), 5′-[…]-3′; ASO #14 (SEQ ID NO: 5), 5′-[…]-3′; a published non-targeting control ASO, 5′-[…]-3′ (Mullick et al., 2011; Samuel et al., 2006).
Cells were transfected in 6-well plates with ASOs at 100 nM for 48 hours (unless otherwise indicated) using Oligofectamine™ (Invitrogen™, Carlsbad, Calif.) or with MCT4-targeting siRNAs and controls (Dharmacon™, Chicago, Ill.) at 50 nM for 48 hours using Lipofectamine™ 2000 (Invitrogen™), following the manufacturer's instructions.
Total RNA was isolated using the RNeasy Mini Kit™ (Qiagen Inc.™, Hilden, Germany) and cDNA synthesized using the QuantiTect Reverse Transcription Kit™ (Qiagen™). Primers were designed using Primer-BLAST™. qRT-PCR reactions using KAPA SYBR Fast Universal™ (Kapa Biosystems™, Woburn, Mass.) were performed in triplicate in a ViiA 7 Real-Time PCR™ system (Applied Biosystems™, Foster City, Calif.). Target genes were normalized to a geometric average of 3 internal reference genes (Vandesompele et al., 2002).
Cells were harvested and lysed in RIPA buffer (50 mM Tris-Cl pH 7.4, 150 mM NaCl, 1% Igepal, 0.5% Na-deoxycholate, 0.1% SDS) supplemented with a complete protease inhibitor cocktail (Roche, Nutley, N.J.). The protein concentration of the lysate was determined by Pierce BCA Protein Assay™ (Thermo Scientific™, Waltham, Mass.). The lysate was run on 8% SDS polyacrylamide gel (20 ug of protein per lane) and proteins were transferred onto PVDF membrane (Millipore™, Billerica, Mass.). The blot was blocked with the Odyssey™ blocking buffer (Li-cor Biosciences™) and probed with anti-MCT4 antibody. Vinculin was used as a loading control. Following overnight incubation at 4° C., the primary antibody was probed with the corresponding secondary antibody and detected using the Odyssey Infrared Imaging System™ (Li-cor Biosciences™) and Image Studio Version 3.1™ (Li-cor Biosciences™). Densitometry analysis was done using ImageJ (U.S. National Institutes of Health, Bethesda, Md.).

PC3 cells = assay: Combination screening, total live PC3 cell numbers; format: cell-based, human; conditions: Homo sapiens, PC-3; approximate IC50 used for combination screening, 48 hours; read-out: IC50 Concentration
Description: Human PC-3 and DU145 CRPC cells, human LNCaP prostate cancer cells, and mouse TRAMPC2 prostate cancer cells were purchased from the American Type Culture Collection (ATCC); C4-2 CRPC cells were from the Vancouver Prostate Centre, Vancouver, BC, Canada. Human monolayer cultures were maintained in RPMI-1640 (GE Healthcare Hyclone™, Logan, Utah) supplemented with 10% fetal bovine serum (FBS) (GE Healthcare Hyclone™, Logan, Utah) while TRAMPC2 cells were maintained in DMEM (GE Healthcare Hyclone™, Logan, Utah) supplemented with 5% FBS. For cell counting, cells were trypsinized to form a single cell suspension and counted using a TC20 Automated Cell Counter (Bio-Rad, Hercules, Calif.). Cell viability was assessed by trypan blue exclusion.
Various combination strategies were screened at the approximate IC50 concentrations to determine whether synergistic effects may be found by combining current cancer therapeutics (see TABLE D) with MCT4 ASO SEQ ID NO:5. In FIGS. 10 A-C, the total live PC3 cell numbers were assessed 48 hours after treatment with Metformin, Doxycycline and docetaxel both alone and in combination with MCT4 ASO SEQ ID NO:5.

[1] = Table A, ASOs transfected at 100 nM for 48 hours unless otherwise indicated
[2] = Table B, SEQ ID NO 1 and 16 mer truncations

| IC50 (PC3 cells) [µM] | Compound | % MCT4 Inhibition (MCT4; [1]) [%] | % MCT4 Inhibition (MCT4; [2]) [%] |
| --- | --- | --- | --- |
| – | 38 (dG*dG*dC*dC*dA*dC*dC*dG*dC*dC*dT*dC*dC*dA*dT*dC*dA*dG*dC*dA; antisense; listed as Homo sapiens) [compound 38] | 45.92 | – |
| – | 39 (dC*dC*dT*dG*dA*dG*dC*dC*dA*dG*dT*dC*dC*dA*dG*dT*dT*dT*dG*dT; antisense; listed as Homo sapiens) [compound 39] | 39.46 | – |
| – | 40 (dC*dC*dC*dA*dC*dC*dC*dA*dC*dC*dC*dT*dC*dC*dC*dA*dT*dT*dA*dA; antisense; listed as Homo sapiens) [compound 40] | -42.05 | – |
| – | 41 (dG*dC*dT*dT*dC*dT*dG*dT*dA*dC*dC*dT*dC*dC*dT*dC*dC*dC*dT*dG; antisense; listed as Homo sapiens) [compound 41] | 17.02 | – |
| – | 42 (dT*dG*dT*dC*dG*dC*dT*dG*dT*dA*dG*dC*dC*dG*dA*dT*dC*dC*dC; antisense; listed as Homo sapiens) [compound 42] | 21.20 | – |
| – | 43 (TTAAAGTCACGTTGTCTCG; listed as DNA, chemistry not fully specified; listed as Homo sapiens) [compound 43] | 0.27 | – |
| – | 44 (TTGCGGCTTGGCTTCACCG; listed as DNA, chemistry not fully specified; listed as Homo sapiens) [compound 44] | 31.16 | – |
| – | 45 (dC*dA*dC*dA*dG*dC*dT*dC*dC*dT*dC*dC*dC*dA*dT*dG*dG*dC*dC*dA*dG*dG; listed as Rattus norvegicus) [compound 45] | 22.4 | – |
| – | 46 (dA*dT*dG*dG*dC*dC*dA*dG*dG*dA*dG*dG*dG*dT*dT*dG; antisense; listed as Homo sapiens) [compound 46] | 76.03 | 76.03 |
| – | 47 (dC*dA*dT*dG*dG*dC*dC*dA*dG*dG*dA*dG*dG*dG*dT*dT; antisense; listed as Homo sapiens) [compound 47] | 81.21 | 81.21 |
| – | 48 (dC*dC*dA*dT*dG*dG*dC*dC*dA*dG*dG*dA*dG*dG*dG*dT; antisense; listed as Homo sapiens) [compound 48] | 77.65 | 77.65 |
| – | 49 (dC*dC*dC*dA*dT*dG*dG*dC*dC*dA*dG*dG*dA*dG*dG*dG; antisense; listed as Homo sapiens) [compound 49] | 65.76 | 65.76 |
| – | 50 (dT*dC*dC*dC*dA*dT*dG*dG*dC*dC*dA*dG*dG*dA*dG*dG; antisense; listed as Homo sapiens) [compound 50] | 30.52 | 30.52 |
| – | 51 (dC*dC*dT*dT*dC*dC*dC*dT*dG*dA*dA*dG*dG*dT*dT*dC*dC*dT*dC*dC; antisense) [compound 51] | 0.00 | – |
| 0.0025 | CC(=O)O[C@@]12CO[C@@H]1C[C@H](O)[C@@]1(C)C(=O)[C@H](O)C3=C(C)[C@@H](OC(=O)[C@H](O)[C@@H](NC(=O)OC(C)(C)C)c4ccccc4)C[C@@](O)([C@@H](OC(=O)c4ccccc4)[C@H]21)C3(C)C [Docetaxel] | – | – |
| 15 | C[C@H]1c2cccc(O)c2C(=O)C2=C(O)[C@]3(O)C(=O)C(C(N)=O)=C(O)[C@@H](N(C)C)[C@@H]3[C@@H](O)[C@@H]21 [Doxycycline] | – | – |
| 4000 | CN(C)C(=N)N=C(N)N [Metformin] | – | – |
